Source: article PMC7094781 (Journal of Molecular Biology, 2007)

Biological target: SARS 3CL^pro (Severe acute respiratory syndrome coronavirus, UniProt P0C6U8)

acetyl-leucyl-alanyl-alanyl-ketomethyl(cycloglutamine)-phthalhydrazide [inhibitor 2]
bonding mode to Cys145, soaking: the episulfide and the deacylating (major) mixed forms
